# Results taken from PMC10484922, “Discovery of a selective and biologically active low-molecular weight antagonist of human interleukin-1β” (Nature Communications, 2023).
# Entries after “also recorded” stand apart in the source; their conditions may differ.
# System: CHO IL-36R reporter cell line stimulated with IL-36γ
# Assay: NanoBiT reporter assay, CHO IL-36R cells, IL-36γ driven
# Type: cell-based
# Design: average: scale not given here
# Procedure: Reporter cell system for NanoBiT assay
# CHO IL-36R or CHO IL-1R1 reporter cell lines, prepared internally (Klemens Ka u p ma n n ), based on tagged IL-1RAcP and Myd88 proteins using the NanoBiT complementation system, were seeded at a densi ty of 10’000 cells/well in 30 µL of OptiMEM + 0.1 % FCS medium using 384-well plates (white, TCT), for 24 hours.
# Before the treatment, the medium was removed, 20 µL of NanoGlo substrate, (#N2012, Pr o me g a ) were added to the wells. Following substrate addi ti on, 240 nL of compound were added to the wells using an ECH O dispenser device. Then, 3.76 µL of the ligand IL-36g (Novartis) at 200 ng/mL end concentration or recombinant IL-1b (Novartis) at 500 pg/mL end concentration were added to the mix. Luminescence was measured at 405 nm after 30 min incubation (Pherastar reader). […]
compound,measurement,setting,value
Cc1ccc2c(c1)NC(=O)[C@@]2(c1cn[nH]c1)c1cc(-c2ccc(C(=O)O)cc2C(=O)O)ccc1O [Compound (S)-2],IL-36γ-driven NanoBiT reporter activity,,without effect on IL-36g-driven activity; also recorded: no inhibitory activity
same,average,"IL-36, EXP1, conc 0.00610352 uM",-8.032
same,average,"IL-36, EXP1, conc 0.012207 uM",-2.7959
same,average,"IL-36, EXP1, conc 0.0244141 uM",-4.066
same,average,"IL-36, EXP1, conc 0.0488281 uM",-1.337
same,average,"IL-36, EXP1, conc 0.0976562 uM",-10.0933
same,average,"IL-36, EXP1, conc 0.195312 uM",-6.363
same,average,"IL-36, EXP1, conc 0.390625 uM",-11.0347
same,average,"IL-36, EXP1, conc 0.78125 uM",-4.52
same,average,"IL-36, EXP1, conc 1.5625 uM",-4.793
same,average,"IL-36, EXP1, conc 3.125 uM",-8.376
same,average,"IL-36, EXP1, conc 6.25 uM",-1.775
same,average,"IL-36, EXP1, conc 12.5 uM",-2.393
same,average,"IL-36, EXP1, conc 25 uM",-11.2956
same,average,"IL-36, EXP1, conc 50 uM",-8.608
same,average,"IL-36, EXP1, conc 100 uM",2.894
same,average,"IL-36, EXP2, conc 0.00610352 uM",-0.8565
same,average,"IL-36, EXP2, conc 0.012207 uM",-0.8771
same,average,"IL-36, EXP2, conc 0.0244141 uM",16.4182
same,average,"IL-36, EXP2, conc 0.0488281 uM",-7.751
same,average,"IL-36, EXP2, conc 0.0976562 uM",10.3597
same,average,"IL-36, EXP2, conc 0.195312 uM",5.839
same,average,"IL-36, EXP2, conc 0.390625 uM",4.392
same,average,"IL-36, EXP2, conc 0.78125 uM",8.396
same,average,"IL-36, EXP2, conc 1.5625 uM",12.4114
same,average,"IL-36, EXP2, conc 3.125 uM",6.063
same,average,"IL-36, EXP2, conc 6.25 uM",0.8781
same,average,"IL-36, EXP2, conc 12.5 uM",10.8339
same,average,"IL-36, EXP2, conc 25 uM",7.445
same,average,"IL-36, EXP2, conc 50 uM",10.4408
same,average,"IL-36, EXP2, conc 100 uM",12.6091
same,average,"IL-36, EXP3, conc 0.00610352 uM",2.096
same,average,"IL-36, EXP3, conc 0.012207 uM",-6.441
same,average,"IL-36, EXP3, conc 0.0244141 uM",4.8088
same,average,"IL-36, EXP3, conc 0.0488281 uM",-5.951
same,average,"IL-36, EXP3, conc 0.0976562 uM",-4.784
same,average,"IL-36, EXP3, conc 0.195312 uM",-4.89
same,average,"IL-36, EXP3, conc 0.390625 uM",-47.4888
same,average,"IL-36, EXP3, conc 0.78125 uM",-7.151
same,average,"IL-36, EXP3, conc 1.5625 uM",-6.215
same,average,"IL-36, EXP3, conc 3.125 uM",-8.634
same,average,"IL-36, EXP3, conc 6.25 uM",-10.5486
same,average,"IL-36, EXP3, conc 12.5 uM",-5.26
same,average,"IL-36, EXP3, conc 25 uM",-17.1151
same,average,"IL-36, EXP3, conc 50 uM",-4.192
same,average,"IL-36, EXP3, conc 100 uM",-4.987
